Entries after “also recorded” stand apart in the source; their conditions may differ. Where two headings read alike, the source gives them in different places.
Key:
[1] = molecular target: T1, recombinant human dopamine transporter (Homo sapiens, UniProt Q01959); assay: [125I]RTI-55 binding, dopamine transporter in HEK 293 cells; details: for Ki: HEK 293 cells; for potency at binding to the dopamine transporter and blocking dopamine reuptake: in words, compared with MPH / other samples
T1 construct: expressed in transfected cells
T1 sequence (Q01959 whole entry): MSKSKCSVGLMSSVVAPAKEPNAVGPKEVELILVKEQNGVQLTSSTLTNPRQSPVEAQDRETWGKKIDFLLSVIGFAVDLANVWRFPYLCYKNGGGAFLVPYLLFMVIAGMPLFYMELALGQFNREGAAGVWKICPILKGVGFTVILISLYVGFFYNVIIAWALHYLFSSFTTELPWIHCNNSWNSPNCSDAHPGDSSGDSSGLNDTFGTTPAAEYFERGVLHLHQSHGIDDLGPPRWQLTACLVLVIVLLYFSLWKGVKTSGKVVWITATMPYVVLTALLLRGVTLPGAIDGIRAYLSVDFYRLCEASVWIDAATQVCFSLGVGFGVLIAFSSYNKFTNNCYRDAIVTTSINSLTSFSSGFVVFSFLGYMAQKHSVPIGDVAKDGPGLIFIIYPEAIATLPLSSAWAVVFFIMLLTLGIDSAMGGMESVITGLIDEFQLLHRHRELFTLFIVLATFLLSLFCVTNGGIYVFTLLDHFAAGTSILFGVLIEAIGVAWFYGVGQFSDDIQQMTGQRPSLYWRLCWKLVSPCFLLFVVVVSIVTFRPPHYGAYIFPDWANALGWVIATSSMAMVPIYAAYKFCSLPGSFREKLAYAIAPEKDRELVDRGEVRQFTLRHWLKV

[2] = molecular target: T1, recombinant human dopamine transporter; assay: dopamine reuptake inhibition in HEK 293 cells; type: cell-based; details: for IC50: HEK 293 cells; for selectivity for the dopamine transporter over the norepinephrine transporter: in words, from binding and reuptake values; for NE/DA REUPTAKE: ratio of NE/DA reuptake IC50, selectivity for dopamine over norepinephrine transporter
[3] = molecular target: T2, recombinant human serotonin transporter (Homo sapiens, UniProt P31645); assay: biochemical; type: binding
T2 construct: expressed in transfected cells
T2 sequence (P31645 whole entry): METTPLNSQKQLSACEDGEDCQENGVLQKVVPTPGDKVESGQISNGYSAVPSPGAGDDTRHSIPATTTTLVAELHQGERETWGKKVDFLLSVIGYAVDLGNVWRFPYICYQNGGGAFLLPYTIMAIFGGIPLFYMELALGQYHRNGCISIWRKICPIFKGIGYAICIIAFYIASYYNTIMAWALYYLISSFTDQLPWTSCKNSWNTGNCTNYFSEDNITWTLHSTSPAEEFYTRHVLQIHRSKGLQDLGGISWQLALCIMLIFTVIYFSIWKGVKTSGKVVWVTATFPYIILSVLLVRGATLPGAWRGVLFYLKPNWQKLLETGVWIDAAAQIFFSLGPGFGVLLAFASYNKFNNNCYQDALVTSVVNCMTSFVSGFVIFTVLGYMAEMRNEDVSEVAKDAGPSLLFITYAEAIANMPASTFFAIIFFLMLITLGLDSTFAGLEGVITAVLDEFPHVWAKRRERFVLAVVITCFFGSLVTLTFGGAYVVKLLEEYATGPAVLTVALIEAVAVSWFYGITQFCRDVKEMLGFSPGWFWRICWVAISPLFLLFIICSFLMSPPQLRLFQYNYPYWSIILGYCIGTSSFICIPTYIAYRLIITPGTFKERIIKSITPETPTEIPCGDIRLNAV

[4] = molecular target: T2, recombinant human serotonin transporter; assay: serotonin (5HT) reuptake inhibition in HEK 293 cells; type: cell-based
[5] = molecular target: T3, recombinant human norepinephrine transporter (Homo sapiens, UniProt P23975); assay: biochemical; type: binding
T3 construct: expressed in transfected cells
T3 sequence (P23975 whole entry): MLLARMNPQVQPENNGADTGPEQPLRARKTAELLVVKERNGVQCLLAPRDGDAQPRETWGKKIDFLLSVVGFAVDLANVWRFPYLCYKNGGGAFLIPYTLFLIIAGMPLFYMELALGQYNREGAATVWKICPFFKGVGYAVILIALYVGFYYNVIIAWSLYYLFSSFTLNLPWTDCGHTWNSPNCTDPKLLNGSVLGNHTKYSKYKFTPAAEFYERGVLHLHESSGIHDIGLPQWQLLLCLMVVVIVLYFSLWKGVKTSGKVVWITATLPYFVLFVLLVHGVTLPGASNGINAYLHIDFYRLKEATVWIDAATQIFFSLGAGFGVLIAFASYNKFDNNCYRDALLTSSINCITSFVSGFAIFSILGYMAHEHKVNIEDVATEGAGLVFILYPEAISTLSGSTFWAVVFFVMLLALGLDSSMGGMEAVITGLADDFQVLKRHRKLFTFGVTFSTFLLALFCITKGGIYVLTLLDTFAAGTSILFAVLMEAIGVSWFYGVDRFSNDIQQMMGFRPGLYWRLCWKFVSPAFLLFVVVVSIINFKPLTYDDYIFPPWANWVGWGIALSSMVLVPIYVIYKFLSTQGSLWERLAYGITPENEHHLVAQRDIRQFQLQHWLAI

[6] = molecular target: T3, recombinant human norepinephrine transporter; assay: cell-based
[7] = DOPAMINE [I125]-RTI-55 BINDING (Ki), RS/SR racemates table
[8] = DOPAMINE DA REUPTAKE (IC50), RS/SR racemates table
[9] = RS/SR racemates table, HEK 293 cells, read-out: SEROTONIN [I125]-RTI-55 BINDING (Ki)
[10] = SEROTONIN 5HT REUPTAKE (IC50), RS/SR racemates table, HEK 293 cells
[11] = NOREPINEPHRINE [I125]-RTI-55 BINDING (Ki)
[12] = DOPAMINE [I125]-RTI-55 BINDING (Ki), RR/SS racemates table
[13] = DOPAMINE DA REUPTAKE (IC50), RR/SS racemates table
[14] = RR/SS racemates table, HEK 293 cells, read-out: SEROTONIN [I125]-RTI-55 BINDING (Ki)
[15] = RS/SR racemates table, read-out: DOPAMINE [I125]-RTI-55 BINDING (Ki)
[16] = RS/SR racemates table, read-out: DOPAMINE DA REUPTAKE (IC50)
[17] = RS/SR racemates table, HEK 293 cells, read-out: NOREPINEPHRINE [I125]-RTI-55 BINDING (Ki)
[18] = RS/SR racemates table, HEK 293 cells, read-out: NOREPINEPHRINE NE REUPTAKE (IC50)
[19] = RR/SS racemates table, read-out: DOPAMINE [I125]-RTI-55 BINDING (Ki)
[20] = RR/SS racemates table, read-out: DOPAMINE DA REUPTAKE (IC50)
[21] = RR/SS racemates table, HEK 293 cells, read-out: NOREPINEPHRINE [I125]-RTI-55 BINDING (Ki)
[22] = RR/SS racemates table, HEK 293 cells, read-out: NOREPINEPHRINE NE REUPTAKE (IC50)
[23] = SEROTONIN [I125]-RTI-55 BINDING (Ki)
[24] = SEROTONIN 5HT REUPTAKE (IC50), RR/SS racemates table, HEK 293 cells
[25] = RR/SS racemates table, HEK 293 cells, read-out: SEROTONIN 5HT REUPTAKE (IC50)

CCCC(c1ccc(Cl)cc1)C1CCCCN1 (racemic) [EE]
Ki [1, 7]: 380 ± 40 nM
IC50 [2, 8]: 450 ± 60 nM
Ki [3, 9]: 3200 ± 1100 nM
IC50 [4, 10]: 1.3 ± 0.007 µM
Ki [5, 11]: 1.4 ± 0.4 µM
IC50 ([6]; NORE[…] REUPTAKE (IC50)): 200 ± 50 nM

CC(C)(C)CC(c1ccc(Cl)cc1)C1CCCCN1 (racemic) [FF]
Ki [1, 7]: 600 ± 40 nM
IC50 [2, 8]: 670 ± 260 nM
Ki [3, 9]: 3500 ± 1000 nM
IC50 [4, 10]: 1.8 ± 0.6 µM
IC50 ([6]; NORE[…] REUPTAKE (IC50)): 730 ± 250 nM

CC(C)(C)CC(c1ccc(Cl)cc1)C1CCCCN1 (racemic) [F]
Ki [1, 12]: 120 ± 40 nM
IC50 [2, 13]: 60 ± 2 nM
selectivity for the dopamine transporter over the norepinephrine transporter [2]: enhanced selectivity
NE/DA REUPTAKE [2]: 8.7
Ki [3, 14]: 3900 ± 500 nM
Ki [5, 11]: 1.4 ± 0.4 µM
IC50 ([6]; NORE[…] REUPTAKE (IC50)): 520 ± 110 nM

Clc1ccc(C(CC2CCCC2)C2CCCCN2)cc1 (racemic) [LL]
Ki [1, 15]: 310 ± 80 nM
IC50 [2, 16]: 180 ± 20 nM
Ki [5, 17]: 2.6 ± 0.8 µM
IC50 [6, 18]: 730 ± 230 nM

Clc1ccc(C(CC2CCCC2)C2CCCCN2)cc1 (racemic) [L]
Ki [1, 19]: 9.4 ± 1.5 nM
IC50 [2, 20]: 21 ± 1 nM
Ki [5, 21]: 1.7 ± 0.6 µM
IC50 [6, 22]: 310 ± 40 nM

CC(C)CC(c1ccc(C(C)C)cc1)C1CCCCN1 (racemic) [PP]
Ki [3, 23]: 1700 ± 500 nM
IC50 [4, 10]: 1.7 ± 0.1 µM
Ki [5, 11]: 3.2 ± 0.6 µM

CC(C)CC(c1ccc(C(C)C)cc1)C1CCCCN1 (racemic) [P]
Ki [1, 12]: 3300 ± 600 nM
IC50 [2, 13]: 4000 ± 400 nM
NE/DA REUPTAKE [2]: 1.8
Ki [3, 23]: 3300 ± 600 nM
IC50 [4, 24]: 4.7 ± 0.7 µM
Ki [5, 11]: 2.5 ± 0.6 µM
IC50 ([6]; NORE[…] REUPTAKE (IC50)): 7100 ± 1800 nM

CC(C)CC(c1ccc(Cl)cc1)C1CCCCN1 (racemic) [Sample DD]
Ki [1, 15]: 170 ± 50 nM
potency at binding to the dopamine transporter and blocking dopamine reuptake [1]: inactivity
IC50 [2, 16]: 380 ± 130 nM
Ki [5, 17]: 4.5 ± 1.5 µM
IC50 [6, 18]: 750 ± 170 nM

CCCC(c1ccc(Cl)cc1)C1CCCCN1 (racemic) [Sample E]
Ki [1, 19]: 11 ± 3 nM
potency at binding to the dopamine transporter and blocking dopamine reuptake [1]: enhanced potency; also recorded: most potent
IC50 [2, 20]: 7.4 ± 0.4 nM
selectivity for the dopamine transporter over the norepinephrine transporter [2]: enhanced selectivity
NE/DA REUPTAKE [2]: 6.8
Ki [3, 14]: 2700 ± 600 nM
IC50 [4, 25]: 2.9 ± 1.1 µM
Ki [5, 21]: 0.2 ± 0.08 µM
IC50 [6, 22]: 50 ± 15 nM

CC(C)CC(c1ccc(Cl)c(Cl)c1)C1CCCCN1 (racemic) [Sample NN]
Ki [1, 15]: 31 ± 11 nM
potency at binding to the dopamine transporter and blocking dopamine reuptake [1]: considerably more potent; also recorded: most potent
IC50 [2, 16]: 13 ± 3 nM
Ki [3, 9]: 450 ± 40 nM
IC50 ([4]; RS/SR racemates table, HEK 293 cells, read-out: SEROTONIN 5HT REUPTAKE (IC50)): 0.29 ± 0.06 µM
Ki [5, 17]: 0.12 ± 0.03 µM
IC50 [6, 18]: 19 ± 3 nM

CC(C)CC(c1ccc(Cl)c(Cl)c1)C1CCCCN1 (racemic) [Sample N]
Ki [1, 19]: 1 ± 0.5 nM
potency at binding to the dopamine transporter and blocking dopamine reuptake [1]: enhanced potency; also recorded: most potent
IC50 [2, 20]: 5.5 ± 1.3 nM
NE/DA REUPTAKE [2]: 1.6
Ki [3, 14]: 1600 ± 100 nM
IC50 [4, 25]: 1.1 ± 0.3 µM
Ki [5, 21]: 0.025 ± 0.009 µM
IC50 [6, 22]: 9 ± 1 nM

COC(=O)C(c1ccc(Cl)cc1)C1CCCCN1 (single isomer, unassigned) [AA]
Ki [1, 7]: 2000 ± 600 nM
IC50 [2, 8]: 2700 ± 1000 nM
Ki [3, 23]: 5900 ± 200 nM
IC50 ([4]; SEROTONIN 5HT REUPTAKE (IC50), RS/SR racemates table, in μM): > 10 µM
IC50 [6, 18]: 1400 ± 400 nM

COC(=O)C(c1ccc(Cl)cc1)C1CCCCN1 (single isomer, unassigned) [A]
Ki [1, 12]: 25 ± 8 nM
IC50 [2, 13]: 11 ± 2 nM
NE/DA REUPTAKE [2]: 1.0
Ki [3, 23]: 6000 ± 100 nM
Ki [5, 21]: 0.11 ± 0.04 µM
IC50 [6, 22]: 11 ± 3 nM

CCC(c1ccc(Cl)cc1)C1CCCCN1 (single isomer, unassigned) [BB]
Ki [1, 7]: 3500 ± 1000 nM
IC50 [2, 8]: 2200 ± 300 nM
Ki [3, 23]: 5700 ± 800 nM
IC50 [4, 10]: 2 ± 0.6 µM
Ki ([5]; RS/SR racemates table, in μM, read-out: NOREPINEPHRINE [I125]-RTI-55 BINDING (Ki)): > 10 µM

CCC(c1ccc(Cl)cc1)C1CCCCN1 (single isomer, unassigned) [B]
Ki [1, 12]: 37 ± 10 nM
IC50 [2, 13]: 23 ± 5 nM
selectivity for the dopamine transporter over the norepinephrine transporter [2]: enhanced selectivity
NE/DA REUPTAKE [2]: 9.1
Ki [3, 23]: 7800 ± 800 nM
IC50 [4, 24]: 2.4 ± 0.4 µM
Ki [5, 21]: 0.36 ± 0.06 µM
IC50 [6, 22]: 210 ± 30 nM

Source: patent publication US20060100243A1 (priority 2004, published 2006)
